Measured values published in patent publication US8785399B2, “Antibacterial peptides” (Spiderbiotech S.R.A., priority 2008, dated 2014).

Tested on: fresh human erythrocytes
Format: cell-based
Description: The haemolysis assay was adapted from the method of Shin et al. (Ref. 12). Fresh human erythrocytes were used to test the haemolytic activities of the peptides. Whole blood was collected in a sterile tube with a 4% w/v sodium citrate solution (in a 1:10 ratio sodium citrate:whole blood), put in ice and centrifuged at 1000 g for 5 minutes at 4° C.
The supernatant, including the leucocytes above the erythrocyte pellet, was removed carefully and discarded. Intact erytrocytes were washed three times with 2 volumes (1 mL) of prechilled pyrogen-free saline (PBS 1×). Erythrocyte suspensions were adjusted to 0.8% (8 ul in 1 mL or 160 uL in 20 mL) of PBS 1×. […]
Subsequently, intact erythrocyte were pelletted by centrifugation at 1000 g for 5 minutes at 4° C. One hundred microliters of supernatant from each well was transferred accordingly to a new 96-well microtiter plate, and the amount of haemoglobin released into the supernatant was determined by reading the absorbance at 414 nm against a reference wavelength of 490 nm. […]
The haemolysis was determined by two different assays as described in Example VIII. In Tables 7-9 all haemolysis percentage values, determined by UV-VIS spectrophotometry, are reported. […]

## Triton X 100
  Haemolysis, %: 100.0%
